{"source": "patent US20240308973A1", "about": "“PHOSPHODIESTERASE 3 (PDE3) INHIBITORS” (Zoetis Services LLC, priority 2023, published 2024)", "key": {"[1]": {"tested_on": "human iCell cardiomyocytes", "assay": "Human iPS cardiomyocyte contractility assay", "format": "cell-based", "conditions": "human cardiomyocytes chronically paced (2 Hz)", "experimental": "Human iPS Cardiomyocyte Contractility Assay\nFrozen human iCell® cardiomyocytes (FujiFilm® Cellular Dynamics Inc.) were thawed and plated in the center of each well of an Axion® Biosystems cytoview 24-well microelectrode array plate that was coated with human fibronectin in a 5-6 μL droplet at a density of 7-10×10^6 cells/mL. The cells were maintained in culture in a 37° C. humidified incubator at 5% CO2. After at least seven days in culture with maintenance media changes every 2-3 days, the cells were paced at 2 Hz for approximately 48 hours on the Axion® Biosystems Maestro Pro instrument using the field potential application in the Axis Navigator software before returning to the spontaneous beating for at least 10 minutes in the contractility application (i.e., Axion® Biosystems procedure for Positive Inotropy Protocol). […] Readings were taken at 3, 13, 23, 33, 43 and 53 minutes. […] Each compound was evaluated for the contractility response relative to the vehicle control (DMSO). […]\nMyocardial contractility represents the innate ability of the heart muscle to contract. […] Cardiomyocyte contractibility of the compounds of the invention, as defined by changes in mean % delta beat amplitude, were determined to have a positive inotropic effect (i.e., a stronger cardiac muscle contraction force)."}, "PDE3": {"tested_on": "PDE3", "conditions": "JMC Vol. 35, 1992; cited from earlier work"}, "[2]": {"target": "dog PDE3A recombinant enzyme (Canis lupus familiaris, UniProt A0A8I3NYE0)", "sequence (A0A8I3NYE0 1-1135)": "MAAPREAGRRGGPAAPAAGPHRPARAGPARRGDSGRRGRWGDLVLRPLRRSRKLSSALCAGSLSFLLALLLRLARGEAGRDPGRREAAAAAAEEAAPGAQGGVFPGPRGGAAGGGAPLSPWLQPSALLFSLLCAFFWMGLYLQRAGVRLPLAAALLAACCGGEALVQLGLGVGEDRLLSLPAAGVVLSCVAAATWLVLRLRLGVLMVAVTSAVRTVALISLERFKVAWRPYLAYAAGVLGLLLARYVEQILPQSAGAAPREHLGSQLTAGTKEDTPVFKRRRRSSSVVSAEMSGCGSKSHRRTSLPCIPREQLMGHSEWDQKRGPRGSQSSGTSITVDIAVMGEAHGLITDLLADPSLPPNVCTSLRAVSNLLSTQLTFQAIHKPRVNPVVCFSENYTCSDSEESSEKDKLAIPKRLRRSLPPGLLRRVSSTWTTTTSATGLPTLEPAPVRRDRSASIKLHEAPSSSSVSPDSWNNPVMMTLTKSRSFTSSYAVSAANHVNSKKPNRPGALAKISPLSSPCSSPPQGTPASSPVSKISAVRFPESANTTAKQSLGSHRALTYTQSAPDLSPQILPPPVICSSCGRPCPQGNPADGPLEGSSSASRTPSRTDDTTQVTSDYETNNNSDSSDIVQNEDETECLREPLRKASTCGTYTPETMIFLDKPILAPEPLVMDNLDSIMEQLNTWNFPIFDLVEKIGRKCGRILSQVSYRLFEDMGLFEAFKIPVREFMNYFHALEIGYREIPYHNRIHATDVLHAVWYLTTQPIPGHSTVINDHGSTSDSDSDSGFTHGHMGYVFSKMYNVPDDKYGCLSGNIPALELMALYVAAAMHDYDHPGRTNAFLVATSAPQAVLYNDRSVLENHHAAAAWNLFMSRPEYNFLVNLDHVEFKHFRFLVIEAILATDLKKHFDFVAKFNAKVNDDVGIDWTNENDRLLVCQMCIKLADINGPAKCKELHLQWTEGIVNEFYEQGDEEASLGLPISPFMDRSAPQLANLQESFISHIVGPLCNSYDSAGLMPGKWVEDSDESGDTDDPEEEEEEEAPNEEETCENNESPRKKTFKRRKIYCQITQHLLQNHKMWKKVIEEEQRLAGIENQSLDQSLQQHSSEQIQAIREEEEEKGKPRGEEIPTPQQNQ", "assay": "cPDE3A assay (fluorescent polarization)", "format": "biochemical", "conditions": "canine PDE3A, read-out: cPDE3 Inhibition (IC50)", "experimental": "cPDE3A Assay (Fluorescent Polarization)\nThe canine PDE3A assay kit was purchased from BPS Bioscience (San Diego, CA) which included dog PDE3A recombinant enzyme, FAM-cyclic-3′,5′-AMP (20 μM), PDE3 assay buffer, binding agent, binding agent diluent and microtiter 96-well plates. Compounds were initially dissolved in DMSO. The stock concentration was subsequently diluted in cPDE assay buffer (10× stock) and serially diluted to give a concentration response curve starting at 10 μM (≥7 total concentrations). Following the serial dilution, compound solution (0.1% final DMSO) was transferred to an assay plate (96-well) where the remaining canine PDE3A assay reagents were dispensed according to the BPS Bioscience® protocol (catalog #79735) procedure using a final concentration of 5 pg/μL of enzyme. Each compound was evaluated for the inhibition of the canine PDE3A enzyme activity using the measurement of fluorescent polarization changes. The 50% inhibition concentration (IC50) nM was calculated and reported."}, "[3]": {"conditions": "orally administered; cited from earlier work"}, "NT-proBNP": {"tested_on": "NT-proBNP", "assay": "NT-proBNP circulating biomarker reduction", "format": "in vivo, canine", "conditions": "for reduced NT-proBNP levels: over a 12 hour period", "experimental": "NT-proBNP is a standard circulating biomarker of canine MMVD secreted by ventricular cardiomyocytes in response to stretching from volume or pressure overload. It is a well-defined diagnostic and prognostic biological indicator of myocardial wall stress and can be used as a biomarker for acute changes in left ventricular loading conditions. […] In one instance, Example #26 had reduced NT-proBNP levels by 49% and 62% at doses of 0.03 and 0.1 mg/kg, respectively, over a 12 hour period."}, "[4]": {"assay": "Dog plasma half-life after oral dose", "format": "in vivo", "conditions": "Beagle dogs, plasma over 72 hours, read-out: t½ (hrs), Dog Plasma Compound Half-life (converted)", "experimental": "Lastly, plasma half-life was assessed for a number of compounds in dogs. Beagle dogs were given an oral dose (0.1 mg/kg) of the respective compound accounting for a dose amount of about 1 mg/dog. Pimopendan was administered at a 0.3 mg/kg dose."}, "[5]": {"tested_on": "adult human primary ventricular cardiomyocytes", "assay": "contractility amplitude (CA) assay", "format": "cell-based", "conditions": "for Contractility amplitude: vehicle 100, 1 Hz", "experimental": "Further, Example #57 (30 μM) was tested in a contractility amplitude (CA) assay using adult human primary ventricular cardiomyocytes dissociated from human donor hearts to determine the potential of the compound to exert its positive inotropic effect by a single (Ca^2+ sensitization or inhibition of PDE3) or dual (Ca^2+ sensitization and inhibition of PDE3) mechanism of action. Cardiomyocytes were incubated at 35° C. under continuous perfusion (2 mL/minute) in a buffer (vehicle) solution (HEPES (10 mM), NaCl (145 mM), KCl (4 mM), MgCl2 1 mM), CaCl2) (1.8 mM) and dextrose (11.1 mM)) plus 0.1% DMSO). Cells were equilibrated for a minimum of 5 minutes and stimulated with 1.0 Hz with a 1.5× stimulation intensity. A 100 μM IBMX (3-isobutyl-1-methylxanthine) non-selective inhibitor of PDE was used. Treatment time and stimulation was 300 seconds at 1.0 Hz. Data was collected using MyoBLAZER™ (v 2.9.2) software. Equilibrated cells (n=12) were stimulated with supra-threshold voltage at 1 Hz pacing frequency (bipolar pulse of 3 ms duration). Starting at 1 V, the amplitude of the stimulating pulse was increased until the cardiomyocytes started generating contraction-relaxation cycles. Contractility amplitude was calculated from the average of the last 20 contractility transients. Contractility amplitude for vehicle, IBMX and IBMX with Example #57 was 100, 136.8 and 267.6, respectively. […] IBMX increased CA by inhibiting PDE, however, there was an even larger increase in CA in the presence of Ex #57. Additionally, the CA assay was used to assess the potential of Ex #57 to exert a shift in the calcium concentration EC50. […] From this second CA study, contractility of the myocytes was dose dependent on calcium concentration. Contractility at 100 μM, 1000 μM and 10,000 μM CaCl2 was 3.11, 56.31 and 228.61, respectively. With the addition of 30 μM Ex #57, respective contractility values increased to 40.17, 182.67 and 284.27."}, "calcium sensitization": {"tested_on": "calcium sensitization", "conditions": "JMC Vol. 35, 1992; cited from earlier work"}}, "note": "Values joined by “and” are separate entries in the source; they are usually repeats but may differ in a detail not shown here. Equal values may be shown once. Read-outs that look alike come from different tables or passages of the source.", "data": [{"compound": "COc1ccc(-c2nc3ccc(C4=NNC(=O)CC4C)cc3[nH]2)cc1", "note": "(racemic) [pimobendan, 6-(2-(4-methoxyphenyl)-1H-benzo[d]imidazol-6-yl)-5-methyl-4,5-dihydropyridazin-3 (2H)-one]", "values": [{"measurement": "contractility of cardiomyocytes (changes in mean % delta beat amplitude)", "setting": "[1]", "value": "dose dependently increases contractility"}, {"measurement": "IC50", "setting": "PDE3", "value": 560, "unit": "nM"}, {"measurement": "IC50", "setting": "[2]", "value": "~1530 nM and 1530 nM"}, {"measurement": "bioavailability", "setting": "[3]", "value": "60-65%"}, {"measurement": "elimination half-life", "setting": "[3]", "value": "~1.6", "unit": "h"}, {"measurement": "tmax", "setting": "[3]", "value": "about 2 hours"}, {"measurement": "decrease in NT-proBNP", "setting": "NT-proBNP; labeled dose, 24 hours post dose", "value": 41, "unit": "%"}, {"measurement": "half-life", "setting": "[4]; oral, 0.3 mg/kg dose", "value": 0.4, "unit": "h"}]}, {"compound": "CC1CC(=O)NN=C1c1cc(F)c2c(c1)C(C)(C)C(=O)N2", "note": "(stereo not drawn) [Example #26, 7-fluoro-3,3-dimethyl-5-(4-methyl-6-oxo-1,4,5,6-tetrahydropyridazin-3-yl)indolin-2-one]", "values": [{"measurement": "IC50", "setting": "[2]", "value": 7.4, "unit": "nM"}, {"measurement": "reduced NT-proBNP levels", "setting": "NT-proBNP; 0.03 mg/kg", "value": 49, "unit": "%"}, {"measurement": "reduced NT-proBNP levels", "setting": "NT-proBNP; 0.1 mg/kg", "value": 62, "unit": "%"}]}, {"compound": "CC1SC(=O)NN=C1c1cc(F)c2c(c1)CC(=O)N2", "note": "(stereo not drawn) [Example #57, 5-(7-fluoro-2-oxoindolin-5-yl)-6-methyl-3,6-dihydro-2H-1,3,4-thiadiazin-2-one]", "values": [{"measurement": "Contractility", "setting": "[5]; 100 μM CaCl2 with 30 μM Ex #57 (3.11 without)", "value": 40.17}, {"measurement": "Contractility amplitude", "setting": "[5]; 100 μM IBMX with 30 μM Example #57", "value": 267.6}, {"measurement": "Contractility", "setting": "[5]; 1000 μM CaCl2 with 30 μM Ex #57 (56.31 without)", "value": 182.67}, {"measurement": "Contractility", "setting": "[5]; 10,000 μM CaCl2 with 30 μM Ex #57 (228.61 without)", "value": 284.27}, {"measurement": "EC50", "setting": "[5]; Homo sapiens, Cardiomyocyte, without Ex #57 1286 μM, read-out: calcium concentration EC50 with Ex #57", "value": 821000, "unit": "nM"}, {"measurement": "IC50", "setting": "[2]", "value": 14.2, "unit": "nM"}, {"measurement": "half-life", "setting": "[4]; oral dose 0.1 mg/kg", "value": 10, "unit": "h"}]}, {"compound": "CC1SC(=O)NN=C1c1cc(-c2cscn2)c2c(c1)C(C)(C)C(=O)N2", "note": "(stereo not drawn) [Example #68, 5-(3,3-dimethyl-2-oxo-7-(thiazol-4-yl)indolin-5-yl)-6-methyl-3,6-dihydro-2H-1,3,4-thiadiazin-2-one]", "values": [{"measurement": "IC50", "setting": "[2]", "value": 118, "unit": "nM"}, {"measurement": "half-life", "setting": "[4]; oral dose 0.1 mg/kg", "value": 12, "unit": "h"}]}, {"compound": "CC1SC(=O)NN=C1c1cc2c(c(-c3ccc(Cl)cc3)c1)NC(=O)C2", "note": "(stereo not drawn) [Example #71, 5-(7-(4-chlorophenyl)-2-oxoindolin-5-yl)-6-methyl-3,6-dihydro-2H-1,3,4-thiadiazin-2-one]", "values": [{"measurement": "IC50", "setting": "[2]", "value": 90.4, "unit": "nM"}, {"measurement": "half-life", "setting": "[4]; oral dose 0.1 mg/kg", "value": 5.4, "unit": "h"}]}, {"compound": "O=C1CCCc2cc(C3=NNC(=O)SC3)ccc2N1", "note": "[Example #72, 5-(2-oxo-2,3,4,5-tetrahydro-1H-benzo[b]azepin-7-yl)-3,6-dihydro-2H-1,3,4-thiadiazin-2-one]", "values": [{"measurement": "IC50", "setting": "[2]", "value": 28.2, "unit": "nM"}, {"measurement": "half-life", "setting": "[4]; oral dose 0.1 mg/kg", "value": 3.9, "unit": "h"}]}, {"compound": "Cc1cc(C2=NNC(=O)SC2C)cc2c1NC(=O)CCC2", "note": "(stereo not drawn) [Example #73, 6-methyl-5-(9-methyl-2-oxo-2,3,4,5-tetrahydro-1H-benzo[b]azepin-7-yl)-3,6-dihydro-2H-1,3,4-thiadiazin-2-one]", "values": [{"measurement": "IC50", "setting": "[2]", "value": 4.9, "unit": "nM"}, {"measurement": "half-life", "setting": "[4]; oral dose 0.1 mg/kg", "value": 7.5, "unit": "h"}]}, {"compound": "CC1SC(=O)NN=C1c1cc(F)c2c(c1)C(C)(C)C(=O)N2", "note": "(stereo not drawn) [Example #74, 5-(7-fluoro-3,3-dimethyl-2-oxoindolin-5-yl)-6-methyl-3,6-dihydro-2H-1,3,4-thiadiazin-2-one]", "values": [{"measurement": "IC50", "setting": "[2]", "value": 13.3, "unit": "nM"}, {"measurement": "half-life", "setting": "[4]; oral dose 0.1 mg/kg", "value": 55, "unit": "h"}]}, {"compound": "CC1SC(=O)NN=C1c1cc(Cl)c2c(c1)C(C)(C)C(=O)N2", "note": "(stereo not drawn) [Example #75, 5-(7-chloro-3,3-dimethyl-2-oxoindolin-5-yl)-6-methyl-3,6-dihydro-2H-1,3,4-thiadiazin-2-one]", "values": [{"measurement": "IC50", "setting": "[2]", "value": 9.7, "unit": "nM"}, {"measurement": "half-life", "setting": "[4]; oral dose 0.1 mg/kg", "value": 50, "unit": "h"}]}, {"compound": "CC1SC(=O)NN=C1c1cc(Br)c2c(c1)C(C)(C)C(=O)N2", "note": "(stereo not drawn) [Example #76, 5-(7-bromo-3,3-dimethyl-2-oxoindolin-5-yl)-6-methyl-3,6-dihydro-2H-1,3,4-thiadiazin-2-one]", "values": [{"measurement": "IC50", "setting": "[2]", "value": 15.2, "unit": "nM"}, {"measurement": "half-life", "setting": "[4]; oral dose 0.1 mg/kg", "value": 40, "unit": "h"}]}, {"compound": "CC1(C)C(=O)Nc2c(Cl)cc(-c3cnc4c(c3)CC(=O)N4)cc21", "note": "[Example #85, 5-(7-chloro-3,3-dimethyl-2-oxoindolin-5-yl)-1,3-dihydro-2H-pyrrolo[2,3-b]pyridin-2-one]", "values": [{"measurement": "IC50", "setting": "[2]", "value": 49.7, "unit": "nM"}, {"measurement": "half-life", "setting": "[4]; oral dose 0.1 mg/kg", "value": 9, "unit": "h"}]}, {"compound": "CC1(C)C(=O)Nc2c(Cl)cc(-c3cncnc3)cc21", "note": "[Example #86, 7-chloro-3,3-dimethyl-5-(pyrimidin-5-yl)indolin-2-one]", "values": [{"measurement": "IC50", "setting": "[2]", "value": 115, "unit": "nM"}, {"measurement": "half-life", "setting": "[4]; oral dose 0.1 mg/kg", "value": 96, "unit": "h"}]}, {"compound": "CC(C)Cn1c(=O)n(C)c(=O)c2[nH]cnc21", "note": "[IBMX, 3-isobutyl-1-methylxanthine, reference compound]", "values": [{"measurement": "Contractility amplitude", "setting": "[5]; 100 μM IBMX alone", "value": 136.8}]}, {"compound": "CC1(C)C(=O)Nc2ccc(C3=NNC(=O)CC3)cc21", "note": "[indolidan]", "values": [{"measurement": "calcium-sensitizing properties", "setting": "calcium sensitization", "value": "lacked calcium-sensitizing properties"}, {"measurement": "IC50", "setting": "PDE3", "value": 520, "unit": "nM"}]}]}
